In patent US20250034173A1, “PYRIDO[4,3-D]PYRIMIDINE COMPOUNDS” (PFIZER INC., priority 2023, published 2025):

Columns and labels:
Details in all cases: GTPγS loaded protein, geomean
KRAS G12D = KRAS G12D (Homo sapiens (Human), UniProt P01116, G12D); experiment: SPR binding affinity and kinetics, GTPγS-loaded KRAS G12D
Text: (§1) No additional regeneration was used.
(§2) Compound dissociation was monitored for at least 3600 seconds. […] No additional regeneration was used.
(§3) The adequateness of the fit was judged by c2 values and the randomness of residue distribution.

KRAS G12V = KRAS G12V (Homo sapiens (Human), UniProt P01116, G12V); experiment: SPR binding affinity and kinetics, GTPγS-loaded KRAS G12V
Text: as §1, §2, §3

KRAS Wild Type = KRAS Wild Type (Homo sapiens (Human), UniProt P01116); experiment: SPR binding affinity and kinetics, GTPγS-loaded KRAS Wild Type
Text: as §1, §2, §3

KRAS G12C = KRAS G12C (Homo sapiens (Human), UniProt P01116, G12C); experiment: SPR binding affinity and kinetics, GTPγS-loaded KRAS G12C
Text: as §1, §2, §3

Chain of KRAS Wild Type (P01116 other isoform, or with tags, fused parts or gaps): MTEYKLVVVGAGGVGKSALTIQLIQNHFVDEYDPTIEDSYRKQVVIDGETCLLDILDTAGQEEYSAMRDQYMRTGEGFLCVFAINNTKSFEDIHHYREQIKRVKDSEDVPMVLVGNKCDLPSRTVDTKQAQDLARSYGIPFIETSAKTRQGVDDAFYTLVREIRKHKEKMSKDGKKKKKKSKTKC
Chain of KRAS G12V (P01116 other isoform, or with tags, fused parts or gaps G12V): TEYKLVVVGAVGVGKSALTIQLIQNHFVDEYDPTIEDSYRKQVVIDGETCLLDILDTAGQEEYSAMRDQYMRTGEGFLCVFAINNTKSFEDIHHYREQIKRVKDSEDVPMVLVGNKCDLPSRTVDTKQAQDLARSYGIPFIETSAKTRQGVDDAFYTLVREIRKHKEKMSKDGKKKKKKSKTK
Chain of KRAS G12D (P01116 other isoform, or with tags, fused parts or gaps G12D): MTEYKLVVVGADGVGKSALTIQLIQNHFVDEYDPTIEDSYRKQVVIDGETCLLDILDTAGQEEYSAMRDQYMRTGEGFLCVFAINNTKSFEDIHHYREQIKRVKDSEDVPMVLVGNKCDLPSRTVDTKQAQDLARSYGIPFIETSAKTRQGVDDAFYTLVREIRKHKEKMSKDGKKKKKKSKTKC
Chain of KRAS G12C (P01116 other isoform, or with tags, fused parts or gaps G12C): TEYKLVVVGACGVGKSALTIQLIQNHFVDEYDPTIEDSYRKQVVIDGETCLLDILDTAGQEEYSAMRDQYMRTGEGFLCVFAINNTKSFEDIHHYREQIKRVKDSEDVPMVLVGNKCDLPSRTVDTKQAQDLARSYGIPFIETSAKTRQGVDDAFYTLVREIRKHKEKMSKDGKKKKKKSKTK

Row | Kd (KRAS G12D) | Kd (KRAS G12V) | Kd (KRAS Wild Type) | Kd (KRAS G12C) | Structure (SMILES)
1 | 35 nM | 41 nM | 65 nM | 72 nM | COC/C=C1/CN2CCC[C@@]2(COc2nc3c4c(nc(-c5c(C6CC6)c(Cl)cc6[nH]ncc56)c(F)c4n2)OC[C@@H]2COCCCN32)C1 (relative stereo) [Example 48, (8aS)-5-(6-chloro-5-cyclopropyl-1H-indazol-4-yl)-4-fluoro-2-{[(2E,7aS*)-2-(2-methoxyethylidene)tetrahydro-1H-pyrrolizin-7a(5H)-yl]methoxy}-8a,9,12,13-tetrahydro-8H,11H-7,10-dioxa-1,3,6,13a-tetraazanaphtho[1,8-ab]heptalene]
2 | 41 nM | 58 nM | 63 nM | 73 nM | COC/C=C1/CN2CCC[C@@]2(COc2nc3c4c(nc(-c5c(C6CC6)c(Cl)cc6[nH]ncc56)c(F)c4n2)OC[C@@H]2COCCCN32)C1 (relative stereo) [Example 49, (8aS)-5-(6-chloro-5-cyclopropyl-1H-indazol-4-yl)-4-fluoro-2-{[(2E,7aR*)-2-(2-methoxyethylidene)tetrahydro-1H-pyrrolizin-7a(5H)-yl]methoxy}-8a,9,12,13-tetrahydro-8H,11H-7,10-dioxa-1,3,6,13a-tetraazanaphtho[1,8-ab]heptalene]
3 | > 1000 nM | > 1000 nM | > 1000 nM | > 1000 nM | COC/C=C1\CN2CCC[C@@]2(COc2nc3c4c(nc(-c5c6c(cc7[nH]ncc57)CCC[C@H]6OC)c(F)c4n2)OC[C@@H]2COCCCN32)C1 (relative stereo) [Example 59, (8aS)-4-fluoro-2-{[(2Z,7aS)-2-(2-methoxyethylidenetetrahydro-1H-pyrrolizin-7a(5H)-yl]methoxy}-5-[(5R*)-5-methoxy-5,6,7,8-tetrahydro-1H-benzo[f]indazol-4-yl]-8a,9,12,13-tetrahydro-8H,11H-7,10-dioxa-1,3,6,13a-tetraazanaphtho[1,8-ab]heptalene]
4 | > 1000 nM | > 1000 nM | > 1000 nM | > 1000 nM | C=C1CN2CCC[C@@]2(COc2nc3c4c(nc(-c5c6c(cc7[nH]ncc57)CCC[C@H]6OC)c(F)c4n2)OC[C@@H]2COCCCN32)C1 (single isomer, unassigned) [Example 57, (8aS)-4-fluoro-5-[(5R*)-5-methoxy-5,6,7,8-tetrahydro-1H-benzo[f]indazol-4-yl]-2-{[(7aS)-2-methylidenetetrahydro-1H-pyrrolizin-7a(5H)-yl]methoxy}-8a,9,12,13-tetrahydro-8H,11H-7,10-dioxa-1,3,6,13a-tetraazanaphtho[1,8-ab]heptalene]
